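Compound exposure: 48 hours, 5 concentrations, 96-well plates. The concentration for 50% growth inhibition is given as GI50. At the TGI there is no net growth.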
What was measured:
Assay in all cases: NCI tumour cell line growth inhibition, 48 h
HL-60(TB) leukemia = tested on: HL-60(TB) leukemia
SNB-19 CNS = tested on: SNB-19 CNS
U251 CNS = tested on: U251 CNS
786-0 renal = tested on: 786-0 renal
MALME-3M melanoma = tested on: MALME-3M melanoma
NCI-H23 lung = tested on: NCI-H23 lung
RXF 393 renal = tested on: RXF 393 renal
OVCAR-5 ovarian = tested on: OVCAR-5 ovarian
KM12 colon = tested on: KM12 colon
RPMI-8226 leukemia = tested on: RPMI-8226 leukemia

Compound	TGI (HL-60(TB) leukemia)	TGI (SNB-19 CNS)	TGI (U251 CNS)	TGI (786-0 renal)	TGI (MALME-3M melanoma)	TGI (NCI-H23 lung)	TGI (RXF 393 renal)	TGI (OVCAR-5 ovarian)	TGI (KM12 colon)	TGI (RPMI-8226 leukemia)	GI50 (HL-60(TB) leukemia)	GI50 (SNB-19 CNS)	GI50 (U251 CNS)	GI50 (786-0 renal)	GI50 (MALME-3M melanoma)	GI50 (NCI-H23 lung)	GI50 (RXF 393 renal)	GI50 (OVCAR-5 ovarian)	GI50 (KM12 colon)	GI50 (RPMI-8226 leukemia)
OCc1ccc(C2CC(c3ccco3)=NN2c2ccccc2)o1 (centres undefined)	> 100 µM	> 100 µM	> 100 µM	> 100 µM	> 100 µM	> 100 µM	> 100 µM	> 100 µM	> 100 µM	> 100 µM	–	–	–	–	–	–	–	–	–	–
O=C(Nc1c(Cl)cc([N+](=O)[O-])cc1Cl)C(=O)C(C1OC(=O)c2ccccc21)[N+](=O)[O-] (centres undefined)	> 100 µM	> 100 µM	> 100 µM	> 100 µM	> 100 µM	> 100 µM	> 100 µM	> 100 µM	> 100 µM	> 100 µM	–	–	–	–	–	–	–	–	–	–
CC/C=C\C[C@H]1C/C=C2/C(=O)C=C[C@@H]2C/C=C\CCCC(=O)O1	3.3 µM	11.7 µM	2.49 µM	1.89 µM	4.86 µM	5.03 µM	3.1 µM	2.53 µM	4.44 µM	4.03 µM	0.439 µM	2.09 µM	0.779 µM	0.637 µM	1.92 µM	1.89 µM	1.57 µM	0.567 µM	0.94 µM	0.352 µM
C[C@]12CC[C@@H]3c4cc(OCC(F)(F)F)c(O)cc4/C(=N/O)C[C@H]3[C@@H]1CC[C@@H]2O	> 100 µM	> 63.1 µM	1.07 µM	–	29.6 µM	12.7 µM	0.135 µM	> 58.2 µM	11.2 µM	2.33 µM	0.031 µM	–	–	0.029 µM	–	0.0787 µM	0.0322 µM	–	–	0.0584 µM
O=S(=O)(Nc1cc(Sc2cccc3cccnc23)c(O)c2ccccc12)c1ccccc1	4.69 µM	21.4 µM	24.2 µM	10.7 µM	9.65 µM	12.8 µM	12.3 µM	11 µM	16.5 µM	7.9 µM	0.487 µM	1.98 µM	0.78 µM	0.79 µM	2.72 µM	1.93 µM	2.4 µM	1.99 µM	2.03 µM	2.38 µM
COc1ccc2cc(C(C)C(=O)N3CCOC3=O)ccc2c1 (centres undefined)	> 100 µM	> 100 µM	> 100 µM	> 100 µM	> 100 µM	> 100 µM	> 100 µM	> 100 µM	> 100 µM	> 100 µM	–	–	–	–	–	–	–	–	–	–
CCCCON(OC(=O)c1ccc2ccc3cccc4ccc1c2c34)C(C)=O	44.2 µM	> 100 µM	36.5 µM	38.2 µM	37.5 µM	35.5 µM	50.2 µM	92 µM	> 100 µM	80.4 µM	19.2 µM	34.3 µM	18.1 µM	19.6 µM	18.3 µM	17 µM	19.7 µM	23.2 µM	28.8 µM	25.5 µM
Cc1ccc2[nH]c(O)c(N=Nc3ccc(S(N)(=O)=O)cc3)c2c1	> 25 µM	> 25 µM	> 25 µM	> 25 µM	> 25 µM	> 25 µM	17.5 µM	> 25 µM	> 25 µM	> 25 µM	> 25 µM	> 19.1 µM	12.8 µM	23.5 µM	> 22.4 µM	> 21.5 µM	5.27 µM	> 25 µM	4.17 µM	> 25 µM
C=C1C(=O)OC2/C=C(\COC(C)=O)CCC(OC(C)=O)C3=CC(OC3=O)C12 (centres undefined)	> 20.3 µM	36.3 µM	33.9 µM	20.9 µM	4.41 µM	20.7 µM	3.28 µM	33.3 µM	22.1 µM	> 100 µM	–	–	–	–	–	–	–	–	–	–
C=CC[C@]12C=C(OC)[C@@H](O)[C@](OC)(C(c3cc(OC)c4c(c3)OCO4)[C@H]1C)[C@H]2OC(C)=O (some centres undefined)	> 100 µM	> 100 µM	> 100 µM	> 100 µM	> 100 µM	> 100 µM	> 100 µM	> 100 µM	> 100 µM	> 100 µM	–	–	–	–	–	–	–	–	–	–
CCSc1nc(SCC)c2cn[nH]c2n1	> 100 µM	> 100 µM	> 100 µM	> 100 µM	> 100 µM	> 100 µM	> 100 µM	> 100 µM	> 100 µM	> 100 µM	72.4 µM	46.8 µM	65.7 µM	> 100 µM	> 100 µM	> 100 µM	29 µM	69.1 µM	42 µM	40.2 µM
COc1cc(C(=O)c2cc(C)c3[nH]c4ccc(C)cc4c3c2C)cc(OC)c1OC	< 0.01 µM	> 100 µM	> 27.1 µM	3.17 µM	> 100 µM	> 100 µM	4.84 µM	> 100 µM	> 21.6 µM	> 100 µM	< 0.01 µM	< 0.01 µM	< 0.01 µM	< 0.01 µM	< 0.01 µM	< 0.01 µM	< 0.01 µM	< 0.01 µM	< 0.01 µM	< 0.01 µM
COc1ccc(/C=C/c2cc(OC)cc(=O)o2)cc1	> 100 µM	> 100 µM	76.9 µM	> 100 µM	> 100 µM	> 100 µM	> 100 µM	> 100 µM	> 100 µM	> 100 µM	–	–	–	–	–	–	–	–	–	–
Cc1c(C(=O)/C=C/c2ccccc2)[n+](=O)c2ccccc2n1[O-]	40.7 µM	31.8 µM	29.7 µM	32 µM	33.6 µM	29.5 µM	20.9 µM	30.7 µM	29.9 µM	45.9 µM	–	–	–	–	–	–	–	–	–	–
O=C(CCC1OCCO1)Nc1cc(NCc2ccccc2)ccc1OCc1ccccc1	97.3 µM	> 100 µM	> 100 µM	> 100 µM	62.7 µM	> 100 µM	77.8 µM	> 100 µM	97.9 µM	> 100 µM	–	–	–	–	–	–	–	–	–	–
COc1ccc(CCN2COc3c([C@@H](C)CCC=C(C)C)ccc(C)c3C2)cc1OC	60.9 µM	42.8 µM	4.47 µM	4.16 µM	3.18 µM	6.08 µM	4.85 µM	20.8 µM	9.64 µM	7.67 µM	4.11 µM	12.1 µM	1.91 µM	1.98 µM	1.53 µM	2.55 µM	1.73 µM	8.53 µM	2.86 µM	2.09 µM

Reference: PubChem BioAssay (NCI)
